Among the data in patent US10562888B2, “Crystalline FGFR4 inhibitor compound and uses thereof” (Eisai R&D Management Co., Ltd., priority 2015, dated 2020) are solubility values, retold here.

The series is described as follows: Solubility in 0.1 N HCl. It counts as physicochemical. The following applies: simulated gastric fluid.

≈ marks a conversion by molar mass, not a printed value.

For the molecule `C=CC(=O)Nc1cc(N2CCN(CC)CC2)ccc1Nc1cc(N(C)C(=O)Nc2c(Cl)c(OC)cc(OC)c2Cl)ncn1` [Compound 108, N-(2-((6-(3-(2,6-dichloro-3,5-dimethoxyphenyl)-1-methylureido)pyrimidin-4-yl)amino)-5-(4-ethylpiperazin-1-yl)phenyl)acrylamide], the concentration in solution (solubility) came to 5.2 mg/mL (≈ 8.26 mM).
